Read-outs that look alike come from different tables or passages of the source.
Legend:
Type in all cases: cell-based
[1] = system: Methicillin-Susceptible Staphylococcus aureus Isolates; assay: MIC assay (NCCLS broth dilution), MSSA clinical isolates; conditions: Staphylococcus aureus; for MIC: read-out: Minimal Inhibitory Concentration
Procedure, shortened: (§1)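 NCCLS broth dilution, Mueller Hinton II broth; 11 two-fold serial dilutions per agent. Combos novobiocin:tetracycline or novobiocin:minocycline fixed at 2.5:1. Drugs dissolved in water; vancomycin control.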

[2] = system: Vancomycin-intermediate Staphylococcus epidermidis Isolates; assay: MIC assay (NCCLS broth dilution), VISE isolates; conditions: Staphylococcus epidermidis; for MIC: read-out: Minimal Inhibitory Concentration
Procedure, shortened: as §1

[3] = system: Methicillin-Resistant Staphylococcus aureus Isolates; assay: MIC assay (NCCLS broth dilution), MRSA clinical isolates; conditions: Staphylococcus aureus; for MIC: read-out: Minimal Inhibitory Concentration
Procedure, shortened: as §1

[4] = system: Unconfirmed Vancomycin-intermediate Staphylococcus aureus Isolates; assay: MIC assay (NCCLS broth dilution), unconfirmed VISA isolates; conditions: Staphylococcus aureus; for MIC: read-out: Minimal Inhibitory Concentration
Procedure, shortened: as §1

[5] = 52 MSSA isolates, combinations at 2.5:1, given as NB/partner
[6] = 52 MRSA isolates, combinations at 2.5:1, given as NB/partner

CN(C)[C@@H]1C(O)=C(C(N)=O)C(=O)[C@@]2(O)C(O)=C3C(=O)c4c(O)cccc4[C@@](C)(O)[C@H]3C[C@@H]12 [TE, tetracycline]
MIC ([1]; MSSA isolate 133, 03MAR06): 0.5 µg/mL
MIC ([1]; MSSA isolate 134, 03MAR06): 0.5 µg/mL
MIC ([1]; MSSA isolate 135, 03MAR06): 0.5 µg/mL
MIC ([1]; MSSA isolate 753, 22FEB06): 0.5 µg/mL
MIC ([1]; MSSA isolate 754, 22FEB06): 0.5 µg/mL
MIC ([1]; MSSA isolate 754, 24FEB06): 0.5 µg/mL
MIC ([1]; MSSA isolate 755, 22FEB06): 0.5 µg/mL
MIC ([1]; MSSA isolate 756, 03MAR06): 0.5 µg/mL
MIC ([1]; MSSA isolate 779, 22FEB06): 0.5 µg/mL
MIC ([1]; MSSA isolate 780, 03MAR06): 0.5 µg/mL
MIC ([1]; MSSA isolate 781, 03MAR06): 0.5 µg/mL
MIC ([1]; MSSA isolate 782, 22FEB06): 1 µg/mL
MIC ([1]; MSSA isolate 783, 22FEB06): 0.5 µg/mL
MIC ([1]; MSSA isolate 784, 22FEB06): 16 µg/mL
MIC ([1]; MSSA isolate 785, 22FEB06): 0.5 µg/mL
MIC ([1]; MSSA isolate 786, 22FEB06): 0.5 µg/mL
MIC ([1]; MSSA isolate 787, 22FEB06): 0.5 µg/mL
MIC ([1]; MSSA isolate 788, 22FEB06): 0.5 µg/mL
MIC ([1]; MSSA isolate 789, 24FEB06): 0.5 µg/mL
MIC ([1]; MSSA isolate 790, 24FEB06): 0.5 µg/mL
MIC ([1]; MSSA isolate 791, 24FEB06): 0.5 µg/mL
MIC ([1]; MSSA isolate 792, 03MAR06): 0.5 µg/mL
MIC ([1]; MSSA isolate 793, 24FEB06): 0.5 µg/mL
MIC ([1]; MSSA isolate 794, 24FEB06): 0.5 µg/mL
MIC ([1]; MSSA isolate 994, 22FEB06): 0.5 µg/mL
MIC ([1]; MSSA isolate 995, 03MAR06): 0.5 µg/mL
MIC ([1]; MSSA isolate 996, 22FEB06): 0.5 µg/mL
MIC ([1]; MSSA isolate 997, 22FEB06): 0.5 µg/mL
MIC ([1]; MSSA isolate 998, 03MAR06): 0.5 µg/mL
MIC ([1]; MSSA isolate 999, 22FEB06): > 16 µg/mL
MIC ([1]; MSSA isolate 1000, 24FEB06): 0.5 µg/mL
MIC ([1]; MSSA isolate 1001, 24FEB06): 0.5 µg/mL
MIC ([1]; MSSA isolate 1002, 24FEB06): 0.5 µg/mL
MIC ([1]; MSSA isolate 1003, 03MAR06): 0.5 µg/mL
MIC ([1]; MSSA isolate 1005, 24FEB06): 0.25 µg/mL
MIC ([1]; MSSA isolate 1006, 24FEB06): 0.5 µg/mL
MIC ([1]; MSSA isolate 1007, 24FEB06): 0.5 µg/mL
MIC ([1]; MSSA isolate 1008, 24FEB06): 0.5 µg/mL
MIC ([1]; MSSA isolate 1009, 24FEB06): 0.5 µg/mL
MIC ([1]; MSSA isolate 1131, 24FEB06): 0.5 µg/mL
MIC ([1]; MSSA isolate 1132, 03MAR06): 0.5 µg/mL
MIC ([1]; MSSA isolate 1133, 24FEB06): 0.5 µg/mL
MIC ([1]; MSSA isolate 1134, 24FEB06): 0.5 µg/mL
MIC ([1]; MSSA isolate 1654, 03MAR06): 0.5 µg/mL
MIC ([1]; MSSA isolate 1656, 03MAR06): 0.5 µg/mL
MIC ([1]; MSSA isolate 1662, 03MAR06): 0.5 µg/mL
MIC ([1]; MSSA isolate 1663, 03MAR06): 1 µg/mL
MIC ([1]; MSSA isolate 1666, 03MAR06): 0.5 µg/mL
MIC ([1]; MSSA isolate 1667, 03MAR06): 1 µg/mL
MIC ([1]; MSSA isolate 1668, 03MAR06): 0.5 µg/mL
MIC ([1]; MSSA isolate 1671, 03MAR06): 0.5 µg/mL
MIC ([1]; MSSA isolate 1728, 03MAR06): 0.25 µg/mL
MIC ([1]; MSSA isolate 1728, retest 09MAR06): 0.25 µg/mL
MIC50 [1, 5]: 0.5 µg/mL
MIC90 [1, 5]: 0.5 µg/mL
MIC ([2]; VISE isolate 2020, 09MAR06): > 16 µg/mL
MIC ([2]; VISE isolate 2021, 09MAR06): 0.25 µg/mL
MIC ([2]; VISE isolate 2022, 03MAR06): 2 µg/mL
MIC ([2]; VISE isolate 2023, 03MAR06): 0.5 µg/mL
MIC50 ([2]; 4 VISE isolates, combinations at 2.5:1): 0.5 µg/mL
MIC ([3]; MRSA isolate 757, 24FEB06): > 16 µg/mL
MIC ([3]; MRSA isolate 758, 03MAR06): 1 µg/mL
MIC ([3]; MRSA isolate 758, 24FEB06): 0.5 µg/mL
MIC ([3]; MRSA isolate 760, 03MAR06): 1 µg/mL
MIC ([3]; MRSA isolate 760, 24FEB06): 0.5 µg/mL
MIC ([3]; MRSA isolate 763, 22FEB06): 0.5 µg/mL
MIC ([3]; MRSA isolate 765, 22FEB06): 0.5 µg/mL
MIC ([3]; MRSA isolate 766, 22FEB06): 1 µg/mL
MIC ([3]; MRSA isolate 767, 22FEB06): 0.5 µg/mL
MIC ([3]; MRSA isolate 768, 22FEB06): 0.5 µg/mL
MIC ([3]; MRSA isolate 769, 22FEB06): > 16 µg/mL
MIC ([3]; MRSA isolate 770, 22FEB06): 0.5 µg/mL
MIC ([3]; MRSA isolate 771, 22FEB06): 0.5 µg/mL
MIC ([3]; MRSA isolate 772, 22FEB06): 0.5 µg/mL
MIC ([3]; MRSA isolate 773, 24FEB06): 0.5 µg/mL
MIC ([3]; MRSA isolate 774, 24FEB06): 0.5 µg/mL
MIC ([3]; MRSA isolate 775, 24FEB06): 0.5 µg/mL
MIC ([3]; MRSA isolate 776, 24FEB06): 0.5 µg/mL
MIC ([3]; MRSA isolate 777, 24FEB06): 0.5 µg/mL
MIC ([3]; MRSA isolate 778, 24FEB06): 0.25 µg/mL
MIC ([3]; MRSA isolate 886, 24FEB06): 0.5 µg/mL
MIC ([3]; MRSA isolate 887, 24FEB06): 0.5 µg/mL
MIC ([3]; MRSA isolate 888, 24FEB06): 0.5 µg/mL
MIC ([3]; MRSA isolate 889, 24FEB06): 1 µg/mL
MIC ([3]; MRSA isolate 1004, 24FEB06): 16 µg/mL
MIC ([3]; MRSA isolate 1010, 22FEB06): 4 µg/mL
MIC ([3]; MRSA isolate 1012, 22FEB06): 1 µg/mL
MIC ([3]; MRSA isolate 1013, 22FEB06): 0.5 µg/mL
MIC ([3]; MRSA isolate 1014, 22FEB06): 0.5 µg/mL
MIC ([3]; MRSA isolate 1015, 22FEB06): 0.5 µg/mL
MIC ([3]; MRSA isolate 1016, 22FEB06): 0.5 µg/mL
MIC ([3]; MRSA isolate 1017, 22FEB06): 0.5 µg/mL
MIC ([3]; MRSA isolate 1021, 22FEB06): 0.5 µg/mL
MIC ([3]; MRSA isolate 1022, 22FEB06): 0.5 µg/mL
MIC ([3]; MRSA isolate 1023, 22FEB06): 0.5 µg/mL
MIC ([3]; MRSA isolate 1024, 22FEB06): 0.5 µg/mL
MIC ([3]; MRSA isolate 1025, 22FEB06): 0.5 µg/mL
MIC ([3]; MRSA isolate 1135, 22FEB06): 0.5 µg/mL
MIC ([3]; MRSA isolate 1136, 22FEB06): 0.5 µg/mL
MIC ([3]; MRSA isolate 1137, 22FEB06): 0.5 µg/mL
MIC ([3]; MRSA isolate 1138, 22FEB06): 1 µg/mL
MIC ([3]; MRSA isolate 1222, 03MAR06): 0.5 µg/mL
MIC ([3]; MRSA isolate 1222, 24FEB06): 0.5 µg/mL
MIC ([3]; MRSA isolate 1653, 03MAR06): 0.25 µg/mL
MIC ([3]; MRSA isolate 1658, 03MAR06): 0.5 µg/mL
MIC ([3]; MRSA isolate 1659, 03MAR06): 0.25 µg/mL
MIC ([3]; MRSA isolate 1661, 03MAR06): 0.5 µg/mL
MIC ([3]; MRSA isolate 1729, 03MAR06): > 16 µg/mL
MIC ([3]; MRSA isolate 1730, 24FEB06): 0.5 µg/mL
MIC ([3]; MRSA isolate 2009, 24FEB06): > 16 µg/mL
MIC ([3]; MRSA isolate 2010, 24FEB06): 0.5 µg/mL
MIC ([3]; MRSA isolate 2011, 24FEB06): > 16 µg/mL
MIC50 [3, 6]: 0.5 µg/mL
MIC90 [3, 6]: 16 µg/mL
MIC ([4]; Unconfirmed VISA isolate 2013, 03MAR06): 0.5 µg/mL
MIC ([4]; Unconfirmed VISA isolate 2014, 03MAR06): > 16 µg/mL
MIC ([4]; Unconfirmed VISA isolate 2015, 03MAR06): 0.06 µg/mL
MIC ([4]; Unconfirmed VISA isolate 2016, 03MAR06): 0.5 µg/mL
MIC ([4]; Unconfirmed VISA isolate 2017, 03MAR06): 0.25 µg/mL
MIC ([4]; Unconfirmed VISA isolate 2019, 03MAR06): > 16 µg/mL
MIC50 ([4]; 6 unconfirmed VISA isolates (vancomycin MIC 4 ug/ml), combinations at 2.5:1): 0.5 µg/mL
